The source of these data is publication PMC4726260, “Combined ligand-observe ^19F and protein-observe ^15N,^1H-HSQC NMR suggests phenylalanine as the key Δ-somatostatin residue recognized by human protein disulfide isomerase” (Scientific Reports, 2016).

Non-standard residues stand in square brackets, D forms with d. Residues, ends and D or L forms follow the SMILES beside them. No end group written: not given here. Phe(4-F) = N[C@@H](Cc1ccc(F)cc1)C(=O)O

The target of experiment [1] is T1, hPDI b’x (Homo sapiens, UniProt P07237).
T1 construct: There is also a short 19 amino acid x-linker region between the b’ and a’ domains; made in house; host or cells: E. coli
T1 sequence (P07237 230-368 limits assumed): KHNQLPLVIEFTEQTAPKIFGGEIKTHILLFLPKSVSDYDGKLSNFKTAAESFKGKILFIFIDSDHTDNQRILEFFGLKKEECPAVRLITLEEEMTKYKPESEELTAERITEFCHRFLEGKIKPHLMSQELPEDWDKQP
In words: Protein-observe 15N,1H-HSQC NMR titration (chemical shift perturbation, Kd). The settings on record: for Binding classification from 15N,1H-HSQC titration series: 310 K, pH 7.0, resonance shifts throughout the titration; for Kd: read-out: Dissociation constant (Kd), PROTEIN 15N/1H Tracked. It counts as binding. As for the experimental part:
(§1) NMR titrations were carried out by collecting ^19F NMR spectra (at a constant peptide concentration of 0.15 mM) and ^15N,^1H-HSQC spectra (at a constant protein concentration of 0.25 mM). This provided binding perspectives from both peptide and protein. ^19F NMR data provided precise curve fits of equation (1) with Kd values in agreement with those obtained by ^15N NMR (Table 1). […] Triple fluorinated peptide spectra are shown in Fig. 4 with example Kd graphs plotted using chemical shift change against b’x concentration (see Supplementary Information SV for single fluorinated peptide ^19F spectra).
(§2) All spectra were collected using a 4-channel, 5-amplifier Bruker Avance III 14.1 T (600 MHz ^1H) NMR spectrometer equipped with a 5 mm QCI-F cryoprobe. ^15N,^1H-HSQC spectra were acquired over 45 min on samples containing 0.25 mM b’x and varying peptide concentrations. Each ^19F 1D spectrum was acquired over 60 min on samples of 0.15 mM Δ-som with varying protein concentration. Ratios of the variable:static components in each experiment were 1:4, 1:2, 1:1, 1.5:1, 2:1 and 2.5:1. All samples were run at 310 K in 20 mM sodium phosphate buffer (pH 7.0) containing 50 mM NaCl, 5% D6-DMSO, 5% ^2H2O and 0.05% sodium azide. 1D NMR data were processed using Bruker Topspin software and referenced using the position of trifluoroacetic acid (−76.55 ppm). 2D data were processed using NMRPipe[31] and analysed using the CCPN Analysis software package.
Amide chemical shifts were calculated in Hz as √[(0.6Δ^1H)^2 + (Δ^15N)^2]. Dissociation constants (Kd) for each shifting peak were calculated by plotting the chemical shift perturbation (Hz) against ligand concentration (mM) and fitting the curve to the equation: […]
(§3) where Δobs is the observed chemical shift perturbation, Δmax the maximum chemical shift perturbation and [P] and [L] the protein and ligand concentrations respectively. This equation was used to fit both ^15N and ^19F NMR data using KaleidaGraph 4.0 (Synergy Software). Standard errors from the Levenberg-Marquardt fitting routine were taken as the uncertainties. We determined Kd from ^15N,^1H HSQC NMR data using two approaches: First, by simultaneous fitting all shifts which are averaged to create a single plot, which is considered an accurate method of Kd determination. Second, we tracked and fitted each peak individually to the equation above and averaged all results and errors across all fits. […] This hPDI system creates Kd values with shallow binding curve where errors where average chemical shifts reduce fitting accuracy and individual fitting produces higher resoltuion. Therefore, we used Kd values from the averaged individual fit method within this paper to report smaller errors.

In experiment [2] the target is T1, hPDI b’x. In words: Ligand-observe 19F NMR titration (chemical shift change vs b’x concentration, Kd). It counts as binding. The following applies: 310 K. As for the experimental part:
as §1, §2, §3

In experiment [3] the target is human protein disulphide isomerase (hPDI) b'x fragment (human) (UniProt P07237). The experiment can be described thus: SEC; gel filtration elution profile of 15N labelled b'x (step of the purification); absorbance at 280 nm.
Experiment [4] has as its target Δ-somatostatin (Homo sapiens) (UniProt P61278). The experiment can be described thus: 19F NMR. The following applies: cited from earlier work.
Experiment [5] addresses human protein disulphide isomerase (hPDI) fragment b'x (human). In words: NMR titration; protein-observed 15N,1H-HSQC; 0.25 mM 15N b'x constant, peptide titrated (ratios 1:4 to 2.5:1); 310 K; 20 mM sodium phosphate pH 7.0, 50 mM NaCl, 5% D6-DMSO, 5% 2H2O, 0.05% sodium azide; Kd is the average of the fits of the individual shifting peaks.
The mark [6] stands for this setting: 15N,1H-HSQC, constant 0.25 mM 15N b’x, varying peptide (ratios 1:4 to 2.5:1), 310 K (37 °C), 20 mM sodium phosphate pH 7.0, 50 mM NaCl, 5% D6-DMSO, average of individual residue fits, ± standard error of Levenberg-Marquardt fit.
[7] abbreviates: 19F 1D NMR, constant 0.15 mM singly fluorinated peptide, varying b’x, 20 mM sodium phosphate pH 7.0, 50 mM NaCl, 5% D6-DMSO, ± standard error of fit, read-out: Dissociation constant (Kd), LIGAND 19F Tracked (Single-F).

For “RERQIKKQTALVELV [helix-28 from human serum albumin, helix-28 from human serum albumin (…), reference compound]”, the “Binding classification from 15N,1H-HSQC titration series” value in experiment [1] (0.25 mM 15N b’x) is given as “non-binding”. AGSKNAFWKTATSS [Phe6,11 → Ala Δ-som]: the Kd in experiment [1] (setting [6]) came out at 587 ± 174 µM. Turning to `C[C@H](N)C(=O)NCC(=O)N[C@@H](CO)C(=O)N[C@@H](CCCCN)C(=O)N[C@@H](CC(N)=O)C(=O)N[C@@H](Cc1ccc(F)cc1)C(=O)N[C@@H](Cc1ccc(F)cc1)C(=O)N[C@@H](Cc1c[nH]c2ccccc12)C(=O)N[C@@H](CCCCN)C(=O)N[C@H](C(=O)N[C@@H](Cc1ccc(F)cc1)C(=O)N[C@H](C(=O)N[C@@H](CO)C(=O)N[C@@H](CO)C(=O)O)[C@@H](C)O)[C@@H](C)O` [F1,2,3 Δ-som] (H-AGSKN[Phe(4-F)][Phe(4-F)]WKT[Phe(4-F)]TSS-OH), the Kd is 48 ± 35 µM in experiment [1] (setting [6]); 108 ± 15 µM in experiment [2] (19F 1D NMR, F1 (Phe6) resonance of triple fluorinated peptide, 0.15 mM peptide, varying b’x, pH 7.0, ± standard error of fit, read-out: Dissociation constant (Kd), LIGAND 19F Tracked (Triple-F), F1 peak); 33 ± 11 µM in experiment [2] (19F 1D NMR, F2 (Phe7) resonance of triple fluorinated peptide, 0.15 mM peptide, varying b’x, pH 7.0, ± standard error of fit, read-out: Dissociation constant (Kd), LIGAND 19F Tracked (Triple-F), F2 peak); 45 ± 14 µM in experiment [2] (19F 1D NMR, F3 (Phe11) resonance of triple fluorinated peptide, 0.15 mM peptide, varying b’x, pH 7.0, ± standard error of fit, read-out: Dissociation constant (Kd), LIGAND 19F Tracked (Triple-F), F3 peak); 62 ± 13 µM in experiment [2] (mean of the Kd from each monitored 19F resonance in the triple fluorinated peptide, 0.15 mM peptide, pH 7.0, read-out: Dissociation constant (Kd), LIGAND 19F Tracked (Triple-F), mean Kd). On to AGSKNFAWKTFTSS [Phe7 → Ala Δ-som], for which, in experiment [1] (setting [6]), the Kd turned out to be 123 ± 96 µM. Turning to “human protein disulphide isomerase (hPDI) b'x fragment (from UniProt P07237 18-508) (domain or fragment)”, in experiment [3], the stoichiometry N was determined as 2. For AGSKNFFWKTFTSS [Δ-som, Δ-somatostatin], the Kd in experiment [1] (setting [6]) came out at 103 ± 47 µM. Same read-out and setting: the value for AGSKNAAWKTFTSS [Phe6,7 → Ala Δ-som] was 242 ± 177 µM.

For `C[C@H](N)C(=O)NCC(=O)N[C@@H](CO)C(=O)N[C@@H](CCCCN)C(=O)N[C@@H](CC(N)=O)C(=O)N[C@@H](Cc1ccccc1)C(=O)N[C@@H](Cc1ccc(F)cc1)C(=O)N[C@@H](Cc1c[nH]c2ccccc12)C(=O)N[C@@H](CCCCN)C(=O)N[C@H](C(=O)N[C@@H](Cc1ccccc1)C(=O)N[C@H](C(=O)N[C@@H](CO)C(=O)N[C@@H](CO)C(=O)O)[C@@H](C)O)[C@@H](C)O` [F2 Δ-som] (H-AGSKNF[Phe(4-F)]WKTFTSS-OH), the Kd in experiment [1] (setting [6]) is 51 ± 30 µM; in experiment [2] (setting [7]), 27 ± 3 µM. In the same order, the values of `C[C@H](N)C(=O)NCC(=O)N[C@@H](CO)C(=O)N[C@@H](CCCCN)C(=O)N[C@@H](CC(N)=O)C(=O)N[C@@H](Cc1ccccc1)C(=O)N[C@@H](Cc1ccccc1)C(=O)N[C@@H](Cc1c[nH]c2ccccc12)C(=O)N[C@@H](CCCCN)C(=O)N[C@H](C(=O)N[C@@H](Cc1ccc(F)cc1)C(=O)N[C@H](C(=O)N[C@@H](CO)C(=O)N[C@@H](CO)C(=O)O)[C@@H](C)O)[C@@H](C)O` [F3 Δ-som] (H-AGSKNFFWKT[Phe(4-F)]TSS-OH) are 84 ± 53 µM and 97 ± 21 µM. Turning to “AGSKNAAWKTATSS [Phe6,7,11 → Ala Δ-som, triple Phe → Ala peptide of Δ-som]”, in experiment [1] (0.25 mM 15N b’x), the “Binding classification from 15N,1H-HSQC titration series” value is on record as “non-binding”. The “Chemical shifts identified at the end point of the titration” value in experiment [1] (15N,1H-HSQC, 0.25 mM 15N b’x, shifts did not map to the ligand binding site) is reported as less than 0.01 ppm. Further, in experiment [1] (setting [6]), the “Dissociation constant (Kd), PROTEIN 15N/1H Tracked” value was “Non binding”.

For `C[C@H](N)C(=O)NCC(=O)N[C@@H](CO)C(=O)N[C@@H](CCCCN)C(=O)N[C@@H](CC(N)=O)C(=O)N[C@@H](Cc1ccc(F)cc1)C(=O)N[C@@H](Cc1ccccc1)C(=O)N[C@@H](Cc1c[nH]c2ccccc12)C(=O)N[C@@H](CCCCN)C(=O)N[C@H](C(=O)N[C@@H](Cc1ccccc1)C(=O)N[C@H](C(=O)N[C@@H](CO)C(=O)N[C@@H](CO)C(=O)O)[C@@H](C)O)[C@@H](C)O` [F1 Δ-som] (H-AGSKN[Phe(4-F)]FWKTFTSS-OH), the Kd in experiment [1] (setting [6]) is 61 ± 47 µM; in experiment [2] (setting [7]) it was 109 ± 13 µM. In the case of AGSKNFFWKTATSS [Phe11 → Ala Δ-som], the Kd in experiment [1] (setting [6]) came to 261 ± 101 µM.

AGSKNAFWKTFTSS [Phe6 → Ala Δ-som]: the Kd in experiment [1] (setting [6]) worked out at 199 ± 100 µM. For the molecule AGSKNFAWKTATSS [Phe7,11 → Ala Δ-som], the Kd in experiment [1] (setting [6]) was 412 ± 219 µM. PDI b'x (from UniProt P07237): the Kd in experiment [4] is 23 µM. Take AGSKNFFWKTATSS [Phe11 → Ala Δ-som]: in experiment [5], the Kd came to 261 µM. On the same count and under the same terms, the value for AGSKNFFWKTFTSS [Δ-somatostatin] was 103 µM; that for AGSKNAFWKTATSS [Phe6,11 → Ala Δ-som] was 587 µM; that for AGSKNF[Phe(4-F)]WKTFTSS [F2 Δ-som] was 51 µM. With AGSKNAAWKTFTSS [Phe6,7 → Ala Δ-som], the Kd in experiment [5] is 242 µM. The same measure, in the same setting: the value for AGSKN[Phe(4-F)]FWKTFTSS [F1 Δ-som] was 61 µM; that for AGSKN[Phe(4-F)][Phe(4-F)]WKT[Phe(4-F)]TSS [F1,2,3 Δ-som] was 48 µM; that for AGSKNFAWKTATSS [Phe7,11 → Ala Δ-som] was 412 µM. On the same count and under the same terms, next, AGSKNFFWKT[Phe(4-F)]TSS [F3 Δ-som]: 84 µM; AGSKNAFWKTFTSS [Phe6 → Ala Δ-som]: 199 µM; AGSKNFAWKTFTSS [Phe7 → Ala Δ-som]: 123 µM.
